# In patent US4400387A, “Indolizine derivatives and uses in therapeutics” (S. A. Labaz-Sanofi N.V., priority 1979, dated 1983):
# Target: T1, xanthine oxidase found in milk (Bos taurus, UniProt P80457)
# T1 construct: purchased
# Assay: Inhibition of the action of xanthine oxidase in vitro (U.V. spectrophotometry, formation of uric acid from hypoxanthine)
# Type: biochemical
# Settings: compound at 10^-5 M; hypoxanthine substrate, pH 7.4, 37° C.
# Procedure: This trial was performed with xanthine oxidase found in milk. The activity of the enzymatic preparation was measured by following the formation of uric acid starting from hypoxanthine in the presence of oxygen and of a phosphate buffer solution.
# (§1) The experimental procedure described hereunder was used:
# In the absorption cell, the following solutions were introduced:
# 1.5 ml of a 0.1 molar phosphate buffer solution (pH=7.4) saturated with oxygen.
# 0.3 ml of a 1 m molar solution of ethylene diamine tetraacetate.
# 0.01 ml of a commercial xanthine oxidase solution having a known concentration in enzyme.
# 0.01 ml of a 3.10^-3 molar ethanolic solution of the compound to be tested.
# The contents of the absorption cell were allowed to incubate for 2 minutes and then the enzymatic reaction was started by adding 0.3 ml of a 10^-3 molar solution of hypoxanthine to the absorption cell. The reaction was followed by spectrophotometric recording of the oxidation rate of hypoxanthine at 293 nm and at 37° C. The optical density was automatically registered. The same measurements were performed with a control solution containing all the ingredients referred to above except the compound being tested.
# In this way, a curve representing the variation in optical density in comparison with time was obtained with the solution containing the inhibitor on the one hand and devoid of inhibitor on the other. The slope of both curves was measured and expressed in the number of mols of uric acid formed in one minute. Thus, it was possible to compare the values obtained and calculate, in percent, the inhibition of the activity of xanthine oxidase provoked by a compound of the invention.
# T1 sequence (P80457 whole entry): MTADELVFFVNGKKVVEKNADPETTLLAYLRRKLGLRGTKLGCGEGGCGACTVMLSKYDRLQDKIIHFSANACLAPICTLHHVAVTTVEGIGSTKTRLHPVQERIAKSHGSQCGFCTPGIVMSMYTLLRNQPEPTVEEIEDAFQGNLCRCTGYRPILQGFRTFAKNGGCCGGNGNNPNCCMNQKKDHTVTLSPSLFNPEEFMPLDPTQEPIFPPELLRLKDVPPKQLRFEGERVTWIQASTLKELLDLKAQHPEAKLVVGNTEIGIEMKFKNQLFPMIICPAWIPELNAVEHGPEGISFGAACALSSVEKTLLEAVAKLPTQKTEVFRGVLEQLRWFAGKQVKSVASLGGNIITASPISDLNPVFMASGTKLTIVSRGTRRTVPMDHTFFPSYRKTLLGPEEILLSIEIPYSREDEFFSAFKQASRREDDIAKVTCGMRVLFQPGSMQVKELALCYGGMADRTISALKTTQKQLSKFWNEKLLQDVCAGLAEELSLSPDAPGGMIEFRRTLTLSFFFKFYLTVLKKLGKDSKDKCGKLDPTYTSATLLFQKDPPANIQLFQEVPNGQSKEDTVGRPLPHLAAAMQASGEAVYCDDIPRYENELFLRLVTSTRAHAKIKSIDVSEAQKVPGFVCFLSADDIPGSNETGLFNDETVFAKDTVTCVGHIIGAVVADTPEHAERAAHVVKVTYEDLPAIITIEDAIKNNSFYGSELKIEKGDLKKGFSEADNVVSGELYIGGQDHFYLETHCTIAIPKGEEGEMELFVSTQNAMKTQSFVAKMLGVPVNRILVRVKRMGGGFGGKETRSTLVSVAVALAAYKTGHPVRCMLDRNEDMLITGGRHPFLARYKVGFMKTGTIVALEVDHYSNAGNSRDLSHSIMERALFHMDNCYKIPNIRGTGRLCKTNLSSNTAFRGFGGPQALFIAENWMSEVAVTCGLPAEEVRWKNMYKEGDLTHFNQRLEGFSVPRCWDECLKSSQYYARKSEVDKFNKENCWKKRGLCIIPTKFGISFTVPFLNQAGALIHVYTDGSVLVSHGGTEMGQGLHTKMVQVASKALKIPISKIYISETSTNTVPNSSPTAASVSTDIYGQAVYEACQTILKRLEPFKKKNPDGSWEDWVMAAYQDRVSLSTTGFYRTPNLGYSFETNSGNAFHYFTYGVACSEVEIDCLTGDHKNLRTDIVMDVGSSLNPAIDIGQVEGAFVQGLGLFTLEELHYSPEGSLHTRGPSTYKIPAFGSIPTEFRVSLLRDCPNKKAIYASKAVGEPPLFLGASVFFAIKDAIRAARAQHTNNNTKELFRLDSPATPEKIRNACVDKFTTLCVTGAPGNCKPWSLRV
row,SMILES,inhibition at 10 µM
1,"Cc1c(Br)c2ccccn2c1C(=O)c1cc(Cl)c(O)c(Cl)c1 [Methyl Br Cl Cl, 1-Bromo-2-methyl-3-(3,5-dichloro-4-hydroxy-benzoyl)-indolizine]",46%
2,"CCc1cc2ccccn2c1C(=O)c1ccc(O)c(OC)c1 [Ethyl H H OCH3, 2-Ethyl-2-(3-methoxy-4-hydroxy-benzoyl)-indolizine]",57%
3,"CC(C)c1cc2ccccn2c1C(=O)c1ccc(O)c(Cl)c1 [Isopropyl H H Cl, 2-Isopropyl-3-(3-chloro-4-hydroxy-benzoyl)-indolizine]",88%
4,"Cc1c(Br)c2ccccn2c1C(=O)c1ccc(O)c(Cl)c1 [Methyl Br Cl H, 1-Bromo-2-methyl-3-(3-chloro-4-hydroxy-benzoyl)-indolizine]",44%
5,"CCc1c(Cl)c2ccccn2c1C(=O)c1ccc(O)c(Br)c1 [Ethyl Cl Br H, 1-Chloro-2-ethyl-3-(3-bromo-4-hydroxy-benzoyl)-indolizine]",34%
6,"O=C(c1cc(Br)c(O)c(Br)c1)c1c(-c2ccc(Br)cc2)cc2ccccn12 [4-Bromo-phenyl H Br Br, 2-(4-Bromo-phenyl)-3-(3,5-dibromo-4-hydroxy-benzoyl)-indolizine]",23%
7,"CCc1c(Cl)c2ccccn2c1C(=O)c1cc(Br)c(O)c(Br)c1 [Ethyl Cl Br Br, 1-Chloro-2-ethyl-3-(3,5-dibromo-4-hydroxy-benzoyl)-indolizine]",64%
8,"COc1ccc(-c2c(Br)c3ccccn3c2C(=O)c2ccc(O)c(Br)c2)cc1 [4-Methoxy-phenyl Br Br H, 1-Bromo-2-(4-methoxy-phenyl)-3-(3-bromo-4-hydroxy-benzoyl)-indolizine]",80%
9,"Cc1cc2ccccn2c1C(=O)c1ccc(O)c(Br)c1 [Methyl H H Br, 2-Methyl-3-(3-bromo-4-hydroxy-benzoyl)-indolizine]",74%

# Other lines, results leading:
row,inhibition at 10 µM,SMILES
1,84%,"CCCc1c(Br)c2ccccn2c1C(=O)c1ccc(O)c(Cl)c1 [n-Propyl Br H Cl, 1-Bromo-2-n-propyl-3-(3-chloro-4-hydroxy-benzoyl)-indolizine]"
2,95%,"CCCc1c(Br)c2ccccn2c1C(=O)c1cc(Br)c(O)c(Br)c1 [n-Propyl Br Br Br, 1-Bromo-2-n-propyl-3-(3,5-dibromo-4-hydroxy-benzoyl)-indolizine]"

# Target: T2, adenosine deaminase obtained from calf intestine (Bos taurus, UniProt P56658)
# T2 construct: purchased
# T2 sequence (P56658 1-363): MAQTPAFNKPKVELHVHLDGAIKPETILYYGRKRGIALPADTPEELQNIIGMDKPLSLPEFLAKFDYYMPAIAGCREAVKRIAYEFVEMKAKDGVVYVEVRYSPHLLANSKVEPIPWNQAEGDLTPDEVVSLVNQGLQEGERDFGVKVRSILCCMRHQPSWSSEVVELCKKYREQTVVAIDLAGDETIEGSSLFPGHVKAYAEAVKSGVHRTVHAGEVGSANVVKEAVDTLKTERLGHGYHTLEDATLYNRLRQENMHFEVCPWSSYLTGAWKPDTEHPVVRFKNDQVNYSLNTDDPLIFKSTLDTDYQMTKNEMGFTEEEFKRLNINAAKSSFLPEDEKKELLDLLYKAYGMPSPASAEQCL
# Assay: Inhibition of the action of adenosine deaminase in vitro (decrease in absorbance at 265 nm)
# Type: biochemical
# Settings: 5.10^-5 M adenosine; pH 7.4, 30° C.
# Procedure: This test was performed with adenosine deaminase obtained from calf intestine.
# as §1
# In the absorption cell the following solutions were introduced:
# 2.7 ml of a 0.1 molar phosphate buffer solution (pH=7.4)
# 0.3 ml of a 10^-4 or 5.10^-4 molar solution of adenosine in the phosphate buffer solution (final concentration in adenosine: 10^-5 or 5.10^-5 mol) 0.01 ml of a 3.10^-3 molar ethanolic solution of the compound to be studied (about 10 milliunits)
# The contents of the absorption cell were allowed to incubate for 2 minutes and then the enzymatic reaction was started by adding 0.03 ml of a commercial adenosine deaminase solution having a known concentration in enzyme. The reaction was performed at 30° C. and followed by spectrophotometric recording of the decrease in absorbance at 265 nm due to the transformation of adenosine into inosine by means of adenosine deaminase. This enzymatic reaction can be represented by the following equation: [formula]
# The same measurements were performed with a control solution containing all the ingredients referred to above except the compound being studied. Curves were then plotted representing the decrease in absorbance in comparison with time obtained on the one hand with the solution containing the inhibitor and on the other with the control solution.
# The slope of both curves was measured and expressed in the number of mols of inosine formed in one minute. After that, the percent of inhibition of the activity of adenosine deaminase provoked by a compound of the invention was calculated.
row,SMILES,Inhibition of the action of adenosine deaminase in vitro (in %) At 5.10^-5 M adenosine
1,"O=C(c1ccc(O)cc1)c1c(-c2cccc(Br)c2)c(Cl)c2ccccn12 [3-Bromo-phenyl Cl H H, 1-Chloro-2-(3-bromo-phenyl)-3-(4-hydroxy-benzoyl)indolizine]",55%
2,"COc1cc(C(=O)c2c(-c3ccc(F)cc3)cc3ccccn23)ccc1O [4-Fluoro-phenyl H H OCH3, 2-(4-Fluoro-phenyl)-3-(3-methoxy-4-hydroxy-benzoyl)-indolizine]",39%
3,"O=C(c1ccc(O)c(Cl)c1)c1c(-c2ccccc2)c(Br)c2ccccn12 [Phenyl Br Cl H, 1-Bromo-2-phenyl-3-(3-chloro-4-hydroxy-benzoyl)-indolizine]",86%
4,"CC(C)c1c(Br)c2ccccn2c1C(=O)c1ccc(O)c(Br)c1 [Isopropyl Br Br H, 1-Bromo-2-isopropyl-3-(3-bromo-4-hydroxy-benzoyl)-indolizine]",54%
5,"O=C(c1ccc(O)cc1)c1c(-c2ccccc2)c(Br)c2ccccn12 [Phenyl Br H H, 1-Bromo-2-phenyl-3-(4-hydroxy-benzoyl)-indolizine]",52%

# The next lines start with the values.
row,Inhibition of the action of adenosine deaminase in vitro (in %) At 5.10^-5 M adenosine,SMILES
1,57%,"O=C(c1cc(Cl)c(O)c(Cl)c1)c1c(-c2ccccc2)c(Cl)c2ccccn12 [Phenyl Cl Cl Cl, 1-Chloro-2-phenyl-3-(3,5-dichloro-4-hydroxy-benzoyl)-indolizine]"
2,82%,"COc1c(-c2ccccc2)c(C(=O)c2ccc(O)c(Cl)c2)n2ccccc12 [Phenyl OCH3 Cl H, 1-Methoxy-2-phenyl-3-(3-chloro-4-hydroxy-benzoyl)-indolizine]"
3,91%,"COc1c(-c2ccccc2)c(C(=O)c2ccc(O)c(Br)c2)n2ccccc12 [Phenyl OCH3 Br H, 1-Methoxy-2-phenyl-3-(3-bromo-4-hydroxy-benzoyl)-indolizine]"

# Same assay, conditions: 10^-5 M adenosine; pH 7.4, 30° C.
row,SMILES,Inhibition of the action of adenosine deaminase in vitro (in %) At 10^-5 M adenosine
1,"CCc1oc2ccccc2c1C(=O)c1cc(I)c(O)c(I)c1 [2-ethyl-3-(3,5-diiodo-4-hydroxy-benzoyl)-benzofuran, reference compound]",totally inactive
2,"CC(C)c1c(Br)c2ccccn2c1C(=O)c1cc(Br)c(O)c(Br)c1 [Isopropyl Br Br Br, 1-Bromo-2-isopropyl-3-(3,5-dibromo-4-hydroxy-benzoyl)-indolizine]",57%
3,"CC(C)c1oc2ccccc2c1C(=O)c1cc(Br)c(O)c(Br)c1 [2-isopropyl-3-(3,5-dibromo-4-hydroxy-benzoyl)-benzofuran, reference compound]",totally inactive
4,"O=C(c1ccc(O)c(Br)c1)c1c(-c2ccc(F)cc2)cc2ccccn12 [4-Fluoro-phenyl H H Br, 2-(4-Fluoro-phenyl)-3-(3-bromo-4-hydroxy-benzoyl)-indolizine]",60%
5,"CCc1oc2ccccc2c1C(=O)c1ccc(O)cc1 [2-ethyl-3-(4-hydroxy-benzoyl)-benzofuran, reference compound]",18%
6,"CCCCc1oc2ccccc2c1C(=O)c1cc(Br)c(O)c(Br)c1 [2-n-butyl-3-(3,5-dibromo-4-hydroxy-benzoyl)-benzofuran, reference compound]",totally inactive
7,"O=C(c1cc(Br)c(O)c(Br)c1)c1c(-c2ccccc2)oc2ccccc12 [2-phenyl-3-(3,5-dibromo-4-hydroxy-benzoyl)-benzofuran, reference compound]",15%
8,"CCc1oc2ccccc2c1C(=O)c1cc(Br)c(O)c(Br)c1 [2-ethyl-3-(3,5-dibromo-4-hydroxy-benzoyl)-benzofuran, reference compound]",totally inactive
9,"CC(C)c1c(Br)c2ccccn2c1C(=O)c1ccc(O)c(Br)c1 [Isopropyl Br Br H, 1-Bromo-2-isopropyl-3-(3-bromo-4-hydroxy-benzoyl)-indolizine]",75%

# Results, then the molecule that gave them:
row,Inhibition of the action of adenosine deaminase in vitro (in %) At 10^-5 M adenosine,SMILES
1,58%,"O=C(c1ccc(O)c(Cl)c1)c1c(-c2ccccc2)cc2ccccn12 [Phenyl H H Cl, 2-Phenyl-3-(3-chloro-4-hydroxy-benzoyl)-indolizine]"
2,60%,"CCCCc1cc2ccccn2c1C(=O)c1ccc(O)c(Br)c1 [n-Butyl H H Br, 2-n-Butyl-3-(3-bromo-4-hydroxy-benzoyl)-indolizine]"
3,45%,"CCCCc1c(Br)c2ccccn2c1C(=O)c1ccc(O)cc1 [n-Butyl Br H H, 1-Bromo-2-n-butyl-3-(4-hydroxy-benzoyl)-indolizine]"
4,78%,"O=C(c1ccc(O)c(Br)c1)c1c(-c2ccccc2)cc2ccccn12 [Phenyl H H Br, 2-Phenyl-3-(3-bromo-4-hydroxy-benzoyl)-indolizine]"
5,42%,"CCCc1cc2ccccn2c1C(=O)c1ccc(O)c(Cl)c1 [n-Propyl H H Cl, 2-n-Propyl-3-(3-chloro-4-hydroxy-benzoyl)-indolizine]"
